Experimental data as given in PMC3314994, “Inhibitors of human histone deacetylase with potent activity against the African trypanosome Trypanosoma brucei” (Bioorganic & Medicinal Chemistry Letters, 2012).

Tests used:
Trypanosoma brucei (BSF) = experiment: Growth inhibition of cultured bloodstream form T. brucei; assay type: cell-based, Trypanosoma brucei (strain 427); conditions: for IC50 / IC90: Trypanosoma brucei, cultured bloodstream form, strain 427, triplicate; for IC50: read-out: Trypanosoma brucei (BSF) IC50 ± SD; for IC90: read-out: Trypanosoma brucei (BSF) IC90 ± SD
Protocol: Treatment of parasites with micromolar levels of these inhibitors could result in cell death within 4 h (Fig. 1).
[30] Growth inhibitory properties against cultured bloodstream form T. brucei were determined as described previously.[29] Experiments were performed in triplicate and data are presented as ±SD.

HDAC (FDL_HELA) = experiment: Histone deacetylase activity in HeLa cell lysates (fluorescent assay kit); assay type: biochemical, Human; conditions: lysed HeLa cells; read-out: HDAC (FDL_HELA) IC50 ± SD
Protocol: (§1) The compounds from the different structural subclasses were all active as HDAC inhibitors, measured in an assay of enzymes in HeLa cell lysates.[23,24] HeLa cells express multiple HDACs, including HDAC 1, 2, 3, 4, and 8.[25–27] […] To further characterise the compounds with respect to HDAC selectivity, we determined their inhibitory properties against recombinant expressed human HDACs (rhHDAC 1–4, 6–9).[28]
[24] Histone deacetylase activity was determined in lysed Human cervix epithelial cancer HeLa cells. To determine the IC50 of test compound a commercially available fluorescent assay kit was used employing an acetylated enzyme substrate.[23]

rhHDAC 1 = rhHDAC 1 (Homo sapiens, UniProt Q13547); experiment: Inhibition of recombinant human HDAC isoforms; assay type: biochemical; conditions: mean ± SD, triplicate per plate, min two plates; read-out: ED50 rhHDAC 1
Sequence of rhHDAC 1 (Q13547 whole entry, canonical isoform): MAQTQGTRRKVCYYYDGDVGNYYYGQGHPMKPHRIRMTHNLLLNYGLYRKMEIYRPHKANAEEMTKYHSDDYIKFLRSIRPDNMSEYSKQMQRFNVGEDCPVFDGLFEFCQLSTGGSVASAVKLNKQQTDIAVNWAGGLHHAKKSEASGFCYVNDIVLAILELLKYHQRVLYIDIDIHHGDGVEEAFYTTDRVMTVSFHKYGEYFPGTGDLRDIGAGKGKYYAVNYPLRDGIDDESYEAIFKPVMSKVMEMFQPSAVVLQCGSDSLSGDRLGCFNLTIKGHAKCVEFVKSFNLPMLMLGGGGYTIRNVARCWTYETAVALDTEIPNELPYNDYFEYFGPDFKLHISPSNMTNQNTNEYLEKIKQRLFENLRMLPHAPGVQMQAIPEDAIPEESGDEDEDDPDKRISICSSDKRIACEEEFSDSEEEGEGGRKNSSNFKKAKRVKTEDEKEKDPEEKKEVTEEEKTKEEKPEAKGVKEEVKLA
Description: as §1

rhHDAC 2 = rhHDAC 2 (Homo sapiens, UniProt Q92769); experiment: Inhibition of recombinant human HDAC isoforms; assay type: biochemical; conditions: mean ± SD, triplicate per plate, min two plates; read-out: ED50 rhHDAC 2
Sequence of rhHDAC 2 (Q92769 whole entry, canonical isoform): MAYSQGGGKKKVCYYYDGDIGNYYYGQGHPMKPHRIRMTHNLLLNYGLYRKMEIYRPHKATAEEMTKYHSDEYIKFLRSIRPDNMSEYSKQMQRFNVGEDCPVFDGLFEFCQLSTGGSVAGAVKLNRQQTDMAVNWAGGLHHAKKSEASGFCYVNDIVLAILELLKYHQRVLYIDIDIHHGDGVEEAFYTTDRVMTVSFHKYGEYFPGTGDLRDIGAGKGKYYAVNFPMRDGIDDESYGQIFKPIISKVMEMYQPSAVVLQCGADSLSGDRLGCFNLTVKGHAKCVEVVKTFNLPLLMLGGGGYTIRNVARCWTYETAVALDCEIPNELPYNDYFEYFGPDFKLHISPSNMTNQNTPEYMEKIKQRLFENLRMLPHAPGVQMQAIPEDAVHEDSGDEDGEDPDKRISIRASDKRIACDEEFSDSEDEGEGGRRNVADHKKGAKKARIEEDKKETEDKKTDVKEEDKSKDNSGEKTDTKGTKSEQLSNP
Description: as §1

rhHDAC 3 = rhHDAC 3 (Homo sapiens, UniProt O15379); experiment: Inhibition of recombinant human HDAC isoforms; assay type: biochemical; conditions: mean ± SD, triplicate per plate, min two plates; read-out: ED50 rhHDAC 3
Sequence of rhHDAC 3 (O15379 whole entry, canonical isoform): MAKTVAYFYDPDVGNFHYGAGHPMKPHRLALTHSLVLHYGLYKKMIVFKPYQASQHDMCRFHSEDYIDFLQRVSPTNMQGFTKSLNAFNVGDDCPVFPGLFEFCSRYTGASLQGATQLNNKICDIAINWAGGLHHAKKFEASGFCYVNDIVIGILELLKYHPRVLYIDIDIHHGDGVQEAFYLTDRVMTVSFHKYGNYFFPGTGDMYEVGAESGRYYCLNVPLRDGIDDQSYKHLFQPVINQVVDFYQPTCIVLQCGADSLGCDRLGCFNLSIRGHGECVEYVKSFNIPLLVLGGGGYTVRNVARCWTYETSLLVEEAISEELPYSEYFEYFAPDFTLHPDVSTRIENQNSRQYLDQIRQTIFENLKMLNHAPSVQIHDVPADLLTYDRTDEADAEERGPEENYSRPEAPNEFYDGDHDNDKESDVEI
Sequence of rhHDAC 3 (Q9Y618 395-489 partner limits assumed): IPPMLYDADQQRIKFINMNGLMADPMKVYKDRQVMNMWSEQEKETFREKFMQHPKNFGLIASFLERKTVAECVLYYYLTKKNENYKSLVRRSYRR
Description: as §1

rhHDAC 6 = target: T1, rhHDAC 6 (Homo sapiens, UniProt Q9UBN7); experiment: Inhibition of recombinant human HDAC isoforms; assay type: biochemical; conditions: mean ± SD, triplicate per plate, min two plates; read-out: ED50 rhHDAC 6
T1 sequence (Q9UBN7 1-1215): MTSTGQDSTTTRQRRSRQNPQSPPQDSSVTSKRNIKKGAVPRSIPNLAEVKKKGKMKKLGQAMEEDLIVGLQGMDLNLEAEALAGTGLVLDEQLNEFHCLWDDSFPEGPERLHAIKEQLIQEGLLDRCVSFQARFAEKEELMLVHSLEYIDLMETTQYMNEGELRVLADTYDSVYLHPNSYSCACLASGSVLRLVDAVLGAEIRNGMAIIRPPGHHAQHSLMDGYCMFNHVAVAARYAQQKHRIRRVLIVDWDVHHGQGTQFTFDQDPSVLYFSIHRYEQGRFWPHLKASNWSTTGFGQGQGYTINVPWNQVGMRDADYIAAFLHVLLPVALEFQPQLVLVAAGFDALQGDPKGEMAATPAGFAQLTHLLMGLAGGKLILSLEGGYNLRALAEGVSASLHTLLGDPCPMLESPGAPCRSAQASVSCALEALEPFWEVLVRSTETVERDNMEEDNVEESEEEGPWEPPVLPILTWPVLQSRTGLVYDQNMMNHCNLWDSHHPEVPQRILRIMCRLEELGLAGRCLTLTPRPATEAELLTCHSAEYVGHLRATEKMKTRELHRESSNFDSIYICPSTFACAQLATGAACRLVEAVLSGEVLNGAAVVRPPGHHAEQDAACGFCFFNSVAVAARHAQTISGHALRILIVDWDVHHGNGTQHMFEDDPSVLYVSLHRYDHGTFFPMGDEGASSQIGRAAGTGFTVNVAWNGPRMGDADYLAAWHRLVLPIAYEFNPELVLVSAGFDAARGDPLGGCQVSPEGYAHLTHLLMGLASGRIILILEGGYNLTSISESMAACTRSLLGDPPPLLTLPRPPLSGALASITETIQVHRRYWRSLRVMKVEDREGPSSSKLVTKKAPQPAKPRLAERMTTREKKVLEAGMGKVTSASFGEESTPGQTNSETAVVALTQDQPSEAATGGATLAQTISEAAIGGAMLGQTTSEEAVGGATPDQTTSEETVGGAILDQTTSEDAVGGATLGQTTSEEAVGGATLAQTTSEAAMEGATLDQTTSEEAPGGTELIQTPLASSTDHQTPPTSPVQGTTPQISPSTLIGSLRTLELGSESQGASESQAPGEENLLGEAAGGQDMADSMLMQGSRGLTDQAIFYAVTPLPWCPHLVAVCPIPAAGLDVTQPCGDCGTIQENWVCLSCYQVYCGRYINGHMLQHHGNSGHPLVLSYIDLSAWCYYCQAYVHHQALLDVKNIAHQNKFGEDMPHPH
Description: as §1

rhHDAC 8 = target: T2, rhHDAC 8 (Homo sapiens, UniProt Q9BY41); experiment: Inhibition of recombinant human HDAC isoforms; assay type: biochemical; conditions: mean ± SD, triplicate per plate, min two plates; read-out: ED50 rhHDAC 8
T2 sequence (Q9BY41 1-377): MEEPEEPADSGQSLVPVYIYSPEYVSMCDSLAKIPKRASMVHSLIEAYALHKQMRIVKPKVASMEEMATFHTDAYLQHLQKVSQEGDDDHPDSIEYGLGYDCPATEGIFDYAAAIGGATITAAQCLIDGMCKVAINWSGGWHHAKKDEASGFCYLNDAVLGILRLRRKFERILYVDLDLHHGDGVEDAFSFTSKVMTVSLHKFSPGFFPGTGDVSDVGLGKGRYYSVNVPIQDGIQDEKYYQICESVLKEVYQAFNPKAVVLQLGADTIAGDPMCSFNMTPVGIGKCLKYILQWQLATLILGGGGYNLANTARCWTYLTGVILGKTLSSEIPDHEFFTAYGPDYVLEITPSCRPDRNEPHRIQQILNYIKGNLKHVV
Description: as §1

rhHDAC 9 = rhHDAC 9 (Homo sapiens, UniProt Q9UKV0); experiment: Inhibition of recombinant human HDAC isoforms; assay type: biochemical; conditions: mean ± SD, triplicate per plate, min two plates; read-out: ED50 rhHDAC 9
Sequence of rhHDAC 9 (Q9UKV0 whole entry, canonical isoform): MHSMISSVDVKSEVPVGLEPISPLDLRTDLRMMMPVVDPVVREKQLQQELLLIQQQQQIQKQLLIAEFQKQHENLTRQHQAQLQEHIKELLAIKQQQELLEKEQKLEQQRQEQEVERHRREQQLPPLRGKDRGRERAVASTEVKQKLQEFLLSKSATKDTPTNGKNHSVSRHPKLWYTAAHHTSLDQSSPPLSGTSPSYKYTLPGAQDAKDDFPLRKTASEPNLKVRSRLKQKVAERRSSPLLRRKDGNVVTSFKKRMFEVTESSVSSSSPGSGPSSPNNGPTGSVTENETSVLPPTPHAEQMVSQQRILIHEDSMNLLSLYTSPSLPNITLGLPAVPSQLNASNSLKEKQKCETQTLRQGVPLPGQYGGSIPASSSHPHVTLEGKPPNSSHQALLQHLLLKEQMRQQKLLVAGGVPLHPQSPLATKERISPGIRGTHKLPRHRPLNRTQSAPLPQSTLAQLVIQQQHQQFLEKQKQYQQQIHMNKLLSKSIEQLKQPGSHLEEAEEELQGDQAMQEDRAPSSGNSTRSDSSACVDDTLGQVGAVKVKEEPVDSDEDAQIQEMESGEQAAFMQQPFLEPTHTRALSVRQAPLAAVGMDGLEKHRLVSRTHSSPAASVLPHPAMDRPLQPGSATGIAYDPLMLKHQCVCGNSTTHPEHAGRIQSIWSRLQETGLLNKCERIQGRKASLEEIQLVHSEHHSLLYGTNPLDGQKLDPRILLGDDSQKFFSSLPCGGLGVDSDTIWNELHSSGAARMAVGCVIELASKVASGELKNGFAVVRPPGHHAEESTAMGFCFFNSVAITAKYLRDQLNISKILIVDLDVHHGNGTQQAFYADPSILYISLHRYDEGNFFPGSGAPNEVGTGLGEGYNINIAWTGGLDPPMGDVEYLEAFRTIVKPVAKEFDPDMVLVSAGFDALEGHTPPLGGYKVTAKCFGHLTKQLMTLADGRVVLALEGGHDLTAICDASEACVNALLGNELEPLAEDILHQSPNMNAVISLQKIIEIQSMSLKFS
Description: as §1

rhHDAC 4 = rhHDAC 4 (Homo sapiens, UniProt P56524); experiment: Inhibition of recombinant human HDAC isoforms; assay type: biochemical; conditions: mean ± SD, triplicate per plate, min two plates; read-out: ED50 rhHDAC 4
Sequence of rhHDAC 4 (P56524 whole entry, canonical isoform): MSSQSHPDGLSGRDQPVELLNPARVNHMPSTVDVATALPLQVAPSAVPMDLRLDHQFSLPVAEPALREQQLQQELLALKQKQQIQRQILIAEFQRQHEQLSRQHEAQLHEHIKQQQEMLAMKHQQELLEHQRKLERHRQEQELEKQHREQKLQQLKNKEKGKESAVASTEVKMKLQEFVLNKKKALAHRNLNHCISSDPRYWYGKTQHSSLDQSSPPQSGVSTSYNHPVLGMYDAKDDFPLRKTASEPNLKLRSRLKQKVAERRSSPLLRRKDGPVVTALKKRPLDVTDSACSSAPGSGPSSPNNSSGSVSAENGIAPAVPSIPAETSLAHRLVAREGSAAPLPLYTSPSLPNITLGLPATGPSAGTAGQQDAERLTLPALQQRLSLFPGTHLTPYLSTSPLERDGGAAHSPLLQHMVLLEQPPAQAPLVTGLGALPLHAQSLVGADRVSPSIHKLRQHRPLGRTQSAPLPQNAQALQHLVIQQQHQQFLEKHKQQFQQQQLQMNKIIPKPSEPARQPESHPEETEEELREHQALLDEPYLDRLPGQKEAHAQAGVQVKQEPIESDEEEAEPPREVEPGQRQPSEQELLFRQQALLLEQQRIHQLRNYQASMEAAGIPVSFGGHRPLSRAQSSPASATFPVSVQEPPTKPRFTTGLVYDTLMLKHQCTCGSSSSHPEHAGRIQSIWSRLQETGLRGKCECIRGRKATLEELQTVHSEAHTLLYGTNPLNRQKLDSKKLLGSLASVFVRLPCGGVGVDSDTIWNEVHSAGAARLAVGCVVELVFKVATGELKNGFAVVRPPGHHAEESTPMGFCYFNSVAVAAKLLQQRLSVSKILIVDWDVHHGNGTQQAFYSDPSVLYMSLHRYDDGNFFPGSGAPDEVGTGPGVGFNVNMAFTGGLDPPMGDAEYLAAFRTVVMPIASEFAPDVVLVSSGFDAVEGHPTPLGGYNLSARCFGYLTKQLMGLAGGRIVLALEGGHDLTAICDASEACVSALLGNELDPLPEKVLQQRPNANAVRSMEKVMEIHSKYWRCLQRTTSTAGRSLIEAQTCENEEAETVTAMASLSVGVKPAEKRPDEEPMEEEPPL
Description: as §1

rhHDAC 7 = target: T3, rhHDAC 7 (Homo sapiens, UniProt Q8WUI4); experiment: Inhibition of recombinant human HDAC isoforms; assay type: biochemical; conditions: mean ± SD, triplicate per plate, min two plates; read-out: ED50 rhHDAC 7
T3 sequence (Q8WUI4 1-952): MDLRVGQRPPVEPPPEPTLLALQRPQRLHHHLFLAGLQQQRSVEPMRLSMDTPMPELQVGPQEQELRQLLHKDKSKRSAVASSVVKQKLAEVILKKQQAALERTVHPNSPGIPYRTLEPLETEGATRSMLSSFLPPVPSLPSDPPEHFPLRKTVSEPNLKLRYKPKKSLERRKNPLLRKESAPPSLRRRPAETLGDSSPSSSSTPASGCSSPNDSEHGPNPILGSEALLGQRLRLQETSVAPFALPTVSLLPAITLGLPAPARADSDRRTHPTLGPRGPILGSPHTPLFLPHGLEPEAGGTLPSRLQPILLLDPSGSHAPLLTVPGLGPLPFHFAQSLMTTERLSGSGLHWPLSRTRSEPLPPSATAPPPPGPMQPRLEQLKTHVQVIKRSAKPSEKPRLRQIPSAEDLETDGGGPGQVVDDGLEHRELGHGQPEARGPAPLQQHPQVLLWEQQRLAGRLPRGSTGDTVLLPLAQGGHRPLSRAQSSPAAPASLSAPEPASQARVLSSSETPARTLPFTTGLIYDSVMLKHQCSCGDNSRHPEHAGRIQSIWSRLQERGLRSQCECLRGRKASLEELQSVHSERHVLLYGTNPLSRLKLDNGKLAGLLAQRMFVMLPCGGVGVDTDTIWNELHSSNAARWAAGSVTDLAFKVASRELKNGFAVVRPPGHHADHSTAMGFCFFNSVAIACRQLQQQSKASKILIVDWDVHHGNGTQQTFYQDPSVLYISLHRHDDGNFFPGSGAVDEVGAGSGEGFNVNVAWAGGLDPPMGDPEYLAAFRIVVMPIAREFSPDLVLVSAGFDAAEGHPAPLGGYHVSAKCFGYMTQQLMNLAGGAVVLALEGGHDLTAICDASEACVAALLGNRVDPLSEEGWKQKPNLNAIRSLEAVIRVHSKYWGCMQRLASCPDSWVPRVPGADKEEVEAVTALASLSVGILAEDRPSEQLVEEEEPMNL
Description: as §1

Row | SMILES | IC50 (Trypanosoma brucei (BSF)) | IC90 (Trypanosoma brucei (BSF)) | IC50 (HDAC (FDL_HELA)) | IC50 (rhHDAC 1) | IC50 (rhHDAC 2) | IC50 (rhHDAC 3) | IC50 (rhHDAC 6) | IC50 (rhHDAC 8) | IC50 (rhHDAC 9) | IC50 (rhHDAC 4) | fold less active against T. brucei (Trypanosoma brucei (BSF); relative to heterocyclic compounds 9 and 16) | IC50 (rhHDAC 7)
1 | COc1ccccc1N1CCN(S(=O)(=O)c2cccc(/C=C/C(=O)NO)c2)CC1 [Compound 12] | 198 ± 5 nM | 265 ± 5 nM | 22 ± 2 nM | 53 ± 3 nM | 310 ± 28 nM | 96 ± 46 nM | 305 ± 19 nM | 328 ± 193 nM | 145 ± 151 nM |  |  | 
2 | COc1ccc(N2CCN(S(=O)(=O)c3cccc(/C=C/C(=O)NO)c3)CC2)cc1 [Compound 10] | 156 ± 3 nM | 224 ± 3 nM | 212 ± 112 nM | 76 ± 6 nM | 36 ± 0.7 nM | 295 ± 290 nM | 107 ± 13 nM | 955 ± 166 nM | 1180 nM | 870 nM |  | 
3 | O=C(/C=C/c1nc2ccccc2o1)NO [Compound 20] | 1540 ± 60 nM | 2180 ± 180 nM | 48 ± 28 nM | 134 ± 6 nM | 554 ± 44 nM | 97 ± 0.6 nM | 68 ± 13 nM | 573 ± 30 nM | 278 ± 65 nM | 373 ± 73 nM | 5- to 10 fold | 286 ± 8 nM
4 | O=C(/C=C/c1cccc(S(=O)(=O)N2CCN(Cc3ccc4c(c3)OCO4)CC2)c1)NO [Compound 14] | 261 ± 38 nM | 485 ± 43 nM | 269 ± 87 nM |  |  |  |  |  |  |  |  | 
5 | COc1ccc(NS(=O)(=O)c2cccc(/C=C/C(=O)NO)c2)cc1OC [Compound 19] | 927 ± 57 nM | 2150 ± 140 nM | 23 ± 5 nM |  |  |  |  |  |  |  |  | 
6 | O=C(/C=C/c1ccc2ccccc2n1)NO [Compound 16] | 353 ± 16 nM | 648 ± 20 nM | 22 nM |  |  |  |  |  |  |  |  | 
7 | CN(CCCCCC(=O)NO)C(=O)/C=C/C=C/c1ccccc1 [Compound 24] | > 10000 nM |  |  |  |  |  |  |  |  |  |  | 
8 | COc1cccc(NS(=O)(=O)c2cccc(/C=C/C(=O)NO)c2)c1 [Compound 13] | 198 ± 21 nM | 333 ± 28 nM | 22 ± 2 nM |  |  |  |  |  |  |  |  | 
9 | O=C(/C=C/c1cccc(S(=O)(=O)Nc2ccc(OC(F)(F)F)cc2)c1)NO [Compound 5] | 137 ± 7 nM | 220 ± 7 nM |  |  |  |  |  |  |  |  |  | 
10 | COc1ccc2nc(/C=C/C(=O)NO)ccc2c1 [Compound 9] | 155 ± 18 nM | 310 ± 40 nM | 28 ± 4 nM |  |  |  |  |  |  |  |  | 
11 | O=C(/C=C/c1cccc(S(=O)(=O)N2CCN(c3cccc(Cl)c3)CC2)c1)NO [Compound 4] | 123 ± 6 nM | 169 ± 8 nM | 187 ± 82 nM |  |  |  |  |  |  |  |  | 
